Like-named read-outs stand apart in the source and are kept apart here.
What was measured:
[1] = Peroxide stabilization procedure (perborate/TAED with iron, 40°C, thiosulphate titration); conditions: 35 ppm phosphonate
Protocol: Peroxide stabilization procedure
In a 250 ml glass bottle filled with 200ml deionised water stabilized at 40°C add the following ingredients: […], 35ppm of the tested bleach stabilizer, 0.53g of sodium bicarbonate, 0.42g of sodium carbonate, 0.14g of sodium perborate tetrahydrate and 0.06g of tetra-acetyl ethylene diamine (TAED). Dissolve these ingredients in the water by using an ultrasonic bath. After one minute of such treatment the bottle is transferred to the water bath set at 40°C and samples (10 ml each) are taken from the test bottle 2, 6,10,15,20 and 30 minutes thereafter. To these samples are added 10ml of 1M potassium iodide and 10ml of 20% aqueous sulphuric acid before immediate titration with a standardized 0.01N thiosulphate solution.

[2] = 22 hours at 90 °C, pH 5.5
Protocol: Brine/sea water compatibility.
This test assesses sea water compatibility of the phosphonates added at: 100; 1000; 10000; and 50000 ppm to North Sea water after 22 hours at 90 °C. Calcium left in solution is measured by ICP.
Test details are as follows: • prepare synthetic North Sea water at pH 5.5; • add the phosphonate at 100, 1000, 10000 and 50000 ppm active acid to the synthetic North Sea water solution; • prepare 5 blank solutions made by mixing the required amount of distilled water with North Sea water to obtain the same dilution as obtained by the addition of […], 1000, 10000 and 50000 ppm active acid phosphonate to the synthetic North Sea water solution; • the phosphonate samples with the respective phosphonates at the 4 concentrations as well as the 5 blanks are stored in an oven at 90 °C for a period of 22-24 hours; • upon completion of the test, the samples are observed visually; • after completion of the test, the pH values are being carefully monitored and 50 ml are drawn from each sample, filtered through a […] Millipore filter and stabilized at pH<2 by addition of 37 % aqueous hydrochloric acid; • Ca tolerance values are calculated as follows: % Ca tolerance = (Vi)/(V0) × 100 [formula] • where V0 = ppm Ca found in the blank solution; and • V1 = ppm Ca found in the solution with the phosphonate.

[3] = 1 % active acid phosphonate in synthetic North Sea water, pH 5.5, 140 °C, one week
Protocol: Thermal stability assessment.
This is a test to assess the thermal stability of phosphonates in the presence of synthetic North Sea water. The test is carried out by submitting mixtures of North Sea water and phosphonates stabilized at pH 5.5 to a one week heating at 140 °C. The thermal degradation is determined by ^31P NMR analysis.

[4] = minimum phosphonate concentration for 100% calcium carbonate scale inhibition; 22 hours at 50°C, pH 9
Protocol: Testing method for calcium carbonate scale inhibition.
This is a static test to evaluate the efficiency of phosphonates in preventing calcium carbonate scale inhibition in industrial water treatment conditions. The test is carried out by determining the amount of CaCO3 that has precipitated after 22 hours at 50°C in a 50/50 mixture of cationic and anionic waters with the test phosphonates at 5 different concentrations. The amount of soluble Ca ions is analyzed by titration. Result indicates the % Ca scale inhibition provided by the 5 phosphonate concentrations. Reported results give the minimum phosphonate concentration for 100% calcium carbonate scale inhibition.
• Cationic and anionic waters are prepared at pH 9.

[5] = minimum concentration for full scale inhibition; 22 hours at 90 °C, pH 6; tested at 15, 30, 50, 70 and 100 ppm
Protocol: Barium sulphate scale inhibition.
This is a static test to evaluate the efficiency of phosphonates in preventing barium and strontium scale inhibition in oil field scaling conditions. The test is carried out by determining the amount of BaSO4 and SrSO4 that has precipitated after 22 hours at 90 °C in a 50/50 mixture of synthetic North Sea water and Formation water containing the phosphonates to be tested at 5 different concentrations. The amount of soluble Ba and Sr ions is determined by ICP. The results stand for the minimum phosphonate concentration for 100 % barium sulphate scale inhibition or give the scale inhibition at 100 ppm loading of phosphonate.
Test details are as follows:
Synthetic North Sea water:
• synthetic North Sea and Formation water are prepared having a pH of 6. These water solutions are preheated at 90 °C before starting the test. […] Then add to this glass bottle 50 ml of Formation water; • also prepare one blank solution by mixing 50 ml of North Sea water with 50 ml of Formation water; • put the sample bottles in an oven for 22 hours at 90 °C; • after 22 hours, take 3 ml of each test solution from the surface, filter through a 0.45 µm Millipore filter and add to a stabilizing solution.

[6] = 100 ppm phosphonate in North Sea water
[7] = 1000 ppm phosphonate in North Sea water
[8] = 10000 ppm phosphonate in North Sea water
[9] = 50000 ppm phosphonate in North Sea water

Structure (SMILES)	% remaining act.oxygen ([1]; 0 min)	% remaining act.oxygen ([1]; 2 min)	% remaining act.oxygen ([1]; 6 min)	% remaining act.oxygen ([1]; 10 min)	% remaining act.oxygen ([1]; 15 min)	% remaining act.oxygen ([1]; 20 min)	% remaining act.oxygen ([1]; 30 min)	Ca Tolerance in % [2, 6]	Ca Tolerance in % [2, 7]	Ca Tolerance in % [2, 8]	Ca Tolerance in % [2, 9]	Thermal Stability at 140°C 1 week Decomposition in % [3]	Ca Scale Inhibition [4]	Ba Scale Inhibition: ppm phosphonate needed for 100% BaSO4 scale inhibition [5]
O=P([O-])(O)CN(CCN(CCN(CP(=O)(O)O)CP(=O)(O)O)CP(=O)(O)O)CP(=O)(O)O.[Na+] [Dequest 2066]	100%	100%	99%	97%	95%	94%	90%							
O=P(O)(O)CN(CCN(CP(=O)(O)O)CP(=O)(O)O)CCN(CP(=O)(O)O)CP(=O)(O)O [Dequest 2066A, diethylene triaminopentamethylene phosphonate]								100%	89%	24%	100%	24%	2 ppm full scale	15ppm full scale
O=P(O)(O)CN(CCCCC(CCCN(CP(=O)(O)O)CP(=O)(O)O)CN(CP(=O)(O)O)CP(=O)(O)O)CP(=O)(O)O (centres unmarked) [AMODHMPA, 4-Aminomethyl 1,8-octane diamine hexa (methylene phosphonic acid)]								99%	83%	21%	100%	8.8%		30ppm full scale
O=P(O)(O)CN(CCO)CP(=O)(O)O [HEIBMPA, 2-Hydroxy ethyl imino bis (methylene phosphonic acid)]								100%	79%	100%	100%	19%		30ppm full scale
